According to patent US6906198B1, “Antipicornaviral compounds, their preparation and use” (Agouron Pharmaceuticals, Inc., priority 1998, dated 2005):

How the values were obtained:
[1] = Cytotoxicity in uninfected H1-HeLa cells (anticoxsackieviral assay, XTT); assay type: cell-based; conditions: human; 50% cytotoxic dose, uninfected H1-HeLa cells (Table 4)
Method: (§1) Coxsackievirus types A-21 (CAV-21) and B3 (CVB-3) were purchased from American Type Culture Collection (ATCC, Rockville, Md.). Virus stocks were propagated and antiviral assays were performed in H1-HeLa cells (ATCC). Cells were grown in minimal essential medium with 10% fetal bovine serum (Life Technologies, Gaithersburg, Md.).
(§2) The ability of compounds to protect cells against either CAV-21 or CVB-3 infection was measured by the XTT dye reduction method. This method is described in Weislow et al., J. Natl. Cancer Inst. 1989, vol. 81, 577-586. H1-HeLa cells were infected with CAV-21 or CVB-3 at a multiplicity of infection (m.o.i.) of 0.025 or 0.075, respectively, or mock-infected with medium only. H1-HeLa cells were plated at 4×10^4 cells per well in a 96-well plate and incubated with appropriate concentrations of the test compound. One day (CVB-3) or two days (CAV-21) later, XTT/PMS was added to test plates and the amount of formazan produced was quantified spectrophotometrically at 450/650 nm. The EC50 was calculated as the concentration of compound that increased the formazan production in compound-treated, virus-infected cells to 50% of that produced by compound-free, uninfected cells. The 50% cytotoxic dose (CC50) was calculated as the concentration of compound that decreased formazan production in compound-treated, uninfected cells to 50% of that produced in compound-free, uninfected cells. The therapeutic index (TI) was calculated by dividing the CC50 by the EC50.

[2] = Cytotoxicity in uninfected MRC-5 cells (anti-echoviral/-enteroviral assay, XTT); assay type: cell-based; conditions: human, 50% cytotoxic dose
Method: Echovirus type 11 (EV 11) and enterovirus type 70 (EV 70) were purchased from ATCC (Rockville, Md.). Virus stocks were propagated and antiviral assays were performed in MRC-5 cells (ATCC). Cells were grown in minimal essential medium with 10% fetal bovine serum (Life Technologies, Gaithersburg, Md.).
The ability of compounds to protect cells against either EV 11 or EV 70 infection was measured by the XTT dye reduction method (Weislow et al., J. Natl. Cancer Inst. 1989, vol. 81, 577-586). MRC-5 cells were infected with EV 11 or EV 70 at an m.o.i. of 0.003 or 0.004, respectively, or mock-infected with medium only. Infected or uninfected cells were added at 1×10^4 cells per well and incubated with appropriate concentrations of compound. Four days later, XTT/PMS was added to test plates, and the amount of formazan produced was quantified spectrophotometrically at 450/650 nm. The EC50 was calculated as the concentration of compound that increased the formazan production in compound-treated, virus-infected cells to 50% of that produced by compound-free, uninfected cells. The 50% cytotoxic dose (CC50) was calculated as the concentration of compound that decreased formazan production in compound-treated, uninfected cells to 50% of that produced in compound-free, uninfected cells. The therapeutic index (TI) was calculated by dividing the CC50 by the EC50.

[3] = Cytotoxicity in mock-infected H1-HeLa cells (antirhinoviral assay, XTT); assay type: cell-based; conditions: human, 50% cytotoxic dose
Method: (§3) H1-HeLa cells were infected with HRV-14 at a multiplicity of infection (m.o.i.) of 0.13 (virus particles/cell) or mock-infected with medium only. Infected or mock-infected cells were resuspended at 8×10^5 cells per mL, and incubated with appropriate concentrations of the compounds to be tested. Two days later, XTT/PMS was added to test plates and the amount of formazan produced was quantified spectrophotometrically at 450/650 nm. The EC50 value was calculated as the concentration of compound that increased the percentage of formazan production in compound-treated, virus-infected cells to 50% of that produced by compound-free, mock-infected cells. The 50% cytotoxic dose (CC50) was calculated as the concentration of compound that decreased the percentage of formazan produced in compound-treated, mock-infected cells to 50% of that produced by compound-free, mock-infected cells. The therapeutic index (TI) was calculated by dividing the CC50 value by the EC50 value.
(§4) All strains of human rhinovirus (HRV) for use in this assay were purchased from American Type Culture Collection (ATCC), except for HRV serotype-14 (produced from the infectious cDNA clone constructed by Dr. Robert Rueckert, Institute for Molecular Virology, University of Wisconsin, Madison, Wis.). HRV stocks were propagated and viral assays were performed in H1-HeLa cells (ATCC). Cells were grown in minimal essential medium with 10% fetal bovine serum, available from Life Technologies (Gaithersburg, Md.).

HRV-14 = assay: Antirhinoviral H1-HeLa cell culture assay (XTT), HRV-14; assay type: cell-based, human rhinovirus; conditions: HRV serotype-14, H1-HeLa cells (Table 3); read-out: EC50
Method: Antirhinoviral H1-HeLa Cell Culture Assay
In this cell protection assay, the ability of compounds to protect cells against HRV infection was measured by the XTT dye reduction method, which is described in Weislow et al., J. Natl. Cancer Inst. 1989, vol. 81, 577-586.
as §3, §4
The compounds were tested against control compounds WIN 51711, WIN 52084, and WIN 54954 (obtained from Sterling-Winthrop Pharmaceuticals), Pirodavir (obtained from Janssen Pharmaceuticals), and Pleconaril (prepared according to the method described in Diana et al., J. Med. Chem 1995, vol. 38, 1355). Antiviral data obtained for the test compounds are shown in Tables 1 and 3, where all data are for HRV serotype-14 unless otherwise noted in parentheses.

H1-HeLa cells [4] = assay: Cytotoxicity in mock-infected H1-HeLa cells (antirhinoviral assay, XTT); assay type: cell-based; conditions: 50% cytotoxic dose
Method: as §3, §4

[5] = system: Coxsackievirus type A-21 (CAV-21); assay: Anticoxsackieviral cell culture assay (XTT), CAV-21; assay type: cell-based; conditions: CAV-21, H1-HeLa cells; read-out: EC50
Method: (§5) Anticoxsackieviral Cell Culture Assay
as §1
as §2, with “The 50% cytotoxic dose (CC50) was calculated as the concentration of compound that decreased formazan production in compound-treated, uninfected cells to 50% of that produced in compound-free, uninfected cells.” left out, “EC50. […]” for “EC50.”

H1-HeLa cells [6] = assay: Cytotoxicity in uninfected H1-HeLa cells (anticoxsackieviral assay, XTT); assay type: cell-based; conditions: 50% cytotoxic dose, uninfected H1-HeLa cells (Table 4)
Method: as §1, §2

[7] = system: Coxsackievirus type B3 (CVB-3); assay: Anticoxsackieviral cell culture assay (XTT), CVB-3; assay type: cell-based; conditions: CVB-3, H1-HeLa cells; read-out: EC50
Method: as §5, §1
as §2, with “The 50% cytotoxic dose (CC50) was calculated as the concentration of compound that decreased formazan production in compound-treated, uninfected cells to 50% of that produced in compound-free, uninfected cells.” left out, “EC50. […]” for “EC50.”

Row | Compound | CC50 [1] [µM] | CC50 at 4 days [2] [µM] | CC50 at 2 days [3] [µM] | EC50 (HRV-14) [µM] | CC50 (H1-HeLa cells [4]) [µM] | EC50 [5] [µM] | CC50 (H1-HeLa cells [6]) [µM] | EC50 [7] [µM]
1 | CCOC(=O)c1ccc(OCCC2CCN(c3ccc(C)nn3)CC2)cc1 [Pirodavir, reference compound] | > 100 | > 10 | > 10 |  |  |  |  | 
2 | Cc1cc(CCCOc2c(C)cc(-c3noc(C(F)(F)F)n3)cc2C)on1 [Pleconaril, reference compound] | > 10 | > 10 | > 10 |  |  |  |  | 
3 | Cc1cc(CCCCCCCOc2ccc(C3=NCCO3)cc2)on1 [WIN 51711, reference compound] |  |  |  | 0.78 | > 60 |  |  | 
4 | Cc1cc(CCCCCCCOc2ccc(C3=N[C@@H](C)CO3)cc2)on1 [WIN 52084, reference compound] |  |  |  | 0.07 | > 10 |  |  | 
5 | Cc1cc(CCCCCOc2c(Cl)cc(C3=NCCO3)cc2Cl)on1 [WIN 54954, reference compound] |  |  |  | 2.13 | > 63 | > 100 | > 100 | > 100
